Earlier results as cited in patent US20070275075A1, “Ezetimibe compositions” (priority 2006, published 2007).

What was measured:
[1] = not given; remark: listed apart in the source

solubility in ethanol, methanol, and acetone (ethanol, methanol, acetone): freely to very soluble
solubility in water (water): practically insoluble
stability at ambient temperature [1]: stable
Structure (SMILES): O=C1[C@H](CC[C@H](O)c2ccc(F)cc2)[C@@H](c2ccc(O)cc2)N1c1ccc(F)cc1 [Ezetimibe, 1-(4-fluorophenyl)-3(R)-[3-(4-fluorophenyl)-3(S)-hydroxypropyl]-4(S)-(4-hydroxyphenyl)-2-azetidinone]
